Laboratory results as given in patent publication US9730944B2, “Antiviral activity of novel bicyclic heterocycles” (priority 2010, dated 2017).
Values after ≈ are worked out from the molar mass of the structure shown. Where two headings read alike, the source gives them in different places.

Tests used:
hRV-63 = test: Rhinovirus type 63 antiviral assay in Hela Rh cells, MTS readout; format: cell-based, Human rhinovirus
hRV-45 = test: Rhinovirus type 45 antiviral assay in Hela Rh cells, MTS readout; format: cell-based, Human rhinovirus
hRV-41 = test: Rhinovirus type 41 antiviral assay in Hela Rh cells, MTS readout; format: cell-based, Human rhinovirus
hRV-2 = test: Rhinovirus type 2 antiviral assay in Hela Rh cells, MTS readout; format: cell-based, Human rhinovirus
hRV-42 = test: Rhinovirus type 42 antiviral assay in Hela Rh cells, MTS readout; format: cell-based, Human rhinovirus
hRV-14 = test: Rhinovirus type 14 antiviral assay in Hela Rh cells, MTS readout; format: cell-based, Human rhinovirus
hRV-86 = test: Rhinovirus type 86 antiviral assay in Hela Rh cells, MTS readout; format: cell-based, Human rhinovirus
hRV-39 = test: Rhinovirus type 39 antiviral assay in Hela Rh cells, MTS readout; format: cell-based, Human rhinovirus
hRV-70 = test: Rhinovirus type 70 antiviral assay in Hela Rh cells, MTS readout; format: cell-based, Human rhinovirus
hRV-9 = test: Rhinovirus type 9 antiviral assay in Hela Rh cells, MTS readout; format: cell-based, Human rhinovirus
Hela Rh cells = test: Cytostatic/cytotoxic effect in Hela Rh cells (rhinovirus methodology, MTS)
hRV-85 = test: Rhinovirus type 85 antiviral assay in Hela Rh cells, MTS readout; format: cell-based, Human rhinovirus
hRV-15 = test: Rhinovirus type 15 antiviral assay in Hela Rh cells, MTS readout; format: cell-based, Human rhinovirus
hRV-72 = test: Rhinovirus type 72 antiviral assay in Hela Rh cells, MTS readout; format: cell-based, Human rhinovirus
HIV-1 strain IIIB = test: Inhibition of replication of HIV-1 (IIIB strain) in MT-4 cells, MTT assay; format: cell-based; conditions: MT-4 cells, MTT assay, five days after infection, 50% protection from cytopathic effect, read-out: EC50 (μM) HIV-1 (IIIB)
in vitro [1] = conditions: human
poliovirus (PV type 1) = test: microbe, parasite or virus in culture; format: cell-based; conditions: Enterovirus C, read-out: PV-1 EC50
in vitro [2] = conditions: human, PV CC50
poliovirus (PV type 2) = test: microbe, parasite or virus in culture; format: cell-based; conditions: Enterovirus C, read-out: PV-2 EC50
in vitro [3] = conditions: African green monkey, PV CC50
Vero cells = conditions: African green monkey
poliovirus (PV type 3) = test: microbe, parasite or virus in culture; format: cell-based; conditions: Enterovirus C, read-out: PV-3 EC50
HIV-2 strain (ROD) = test: Inhibition of replication of HIV-2 (ROD strain) in MT-4 cells, MTT assay; format: cell-based; conditions: Human immunodeficiency virus 2, MT4, 120 h; MT-4 cells, MTT assay, five days after infection, 50% protection from cytopathic effect; read-out: EC50 (μM) HIV-2 (ROD)
Hela H cells = conditions: human
[4] = system: Enteric Cytopathic Human Orphan virus (ECHO11); test: organism not typed; format: cell-based; conditions: BGM, read-out: EC50 (ECHO virus)
hRV-59 = test: Rhinovirus type 59 antiviral assay in Hela Rh cells, MTS readout; format: cell-based; conditions: Human rhinovirus sp., HRV59, HeLa Rh; methodology of example 451; read-out: EC50 (μg/ml) hRV-59
hRV-29 = test: Rhinovirus type 29 antiviral assay in Hela Rh cells, MTS readout; format: cell-based; conditions: Human rhinovirus sp., HRV29, HeLa Rh, methodology of example 451; read-out: EC50 (μg/ml) hRV-29
[5] = Cytotoxicity reported with the coxsackievirus (CVA9) assay; conditions: African green monkey
enterovirus (EV71) = test: Enterovirus (EV71) antiviral assay in RD cells; format: cell-based
coxsackie virus (CVA9) = test: Coxsackievirus (CVA9) antiviral assay in BGM cells; format: cell-based; conditions: Enterovirus B
hRV-89 = test: Rhinovirus type 89 antiviral assay in Hela Rh cells, MTS readout; format: cell-based, Human rhinovirus; conditions: Rhinovirus A, HRV89, HeLa Rh; methodology of example 451; read-out: EC50 (μg/ml) hRV-89
[6] = Cytotoxicity in RD cells (enterovirus methodology); conditions: human
[7] = Cytostatic/cytotoxic effect in Hela Rh cells (rhinovirus methodology, MTS); conditions: human, CC50 (μg/ml), rhinovirus methodology of example 451
in vitro [8] = conditions: African green monkey
[9] = Human immunodeficiency virus 1, IIIB, MT4, 120 h

Nc1nc(N2CCN(C(=O)COc3ccc(Br)cc3)CC2)c2sc(Cc3ccc(F)cc3)nc2n1 [Example 231, 1-(4-(5-amino-2-(4-fluorobenzyl)thiazolo[5,4-c]pyrimidin-7-yl)piperazin-1-yl)-2-(4-bromophenoxy)ethanone]
hRV-63 EC50 (hRV-63; Hela Rh cells): =2.32 μg/ml
hRV-45 EC50 (hRV-45; Hela Rh cells): =2.22 μg/ml
hRV-41 EC50 (hRV-41; Hela Rh cells): =0.89 μg/ml
hRV-2 EC50 (hRV-2; Hela Rh cells): =0.51 μg/ml
hRV-42 EC50 (hRV-42; Hela Rh cells): =1.26 μg/ml
hRV-14 EC50 (hRV-14; Hela Rh cells): =1.20 μg/ml
hRV-86 EC50 (hRV-86; Hela Rh cells): =4.42 μg/ml
hRV-39 EC50 (hRV-39; Hela Rh cells): =0.34 μg/ml
hRV-70 EC50 (hRV-70; Hela Rh cells): =4.60 μg/ml
hRV-9 EC50 (hRV-9; Hela Rh cells): =0.55 μg/ml
CC50 (Hela Rh cells): >50.00 µg/mL
hRV-85 EC50 (hRV-85; Hela Rh cells): =2.21 μg/ml
hRV-15 EC50 (hRV-15; Hela Rh cells): =1.38 μg/ml
hRV-72 EC50 (hRV-72; Hela Rh cells): =4.95 μg/ml

COCCCNc1nc(N)nc2sc(-c3ccc(F)cc3)nc12 [Example 32, 2-(4-fluorophenyl)-N-7-(3-methoxypropyl)thiazolo[5,4-d]pyrimidine-5,7-diamine]
EC50 (HIV-1 strain IIIB): > 349 µM
CC50 (MT-4 cells): > 365 µM

O=C(COc1ccc(Cl)cc1)N1CCN(c2ncnc3oc(-c4ccc(F)cc4)nc23)CC1 [Example 167, 2-(4-chlorophenoxy)-1-(4-(2-(4-fluorophenyl)oxazolo[5,4-d]pyrimidin-7-yl)piperazin-1-yl)ethanone]
EC50 (HIV-1 strain IIIB; [9]): > 50 µM
CC50 (in vitro [1]): > 50 µM
EC50 (poliovirus (PV type 1); HeLa): > 50 µg/mL
EC50 (poliovirus (PV type 1); Vero): > 50 µg/mL
CC50 (in vitro [2]): > 50 µg/mL
EC50 (poliovirus (PV type 2); HeLa): ≥ 50 µg/mL
CC50 (in vitro [3]): > 150 µg/mL
PV CC50 (Vero cells): 105.69 µg/mL
EC50 (poliovirus (PV type 3); HeLa): > 50 µg/mL
EC50 (poliovirus (PV type 3); Vero): > 50 µg/mL
EC50 (HIV-2 strain (ROD)): > 50 µM
PV CC50 (Hela H cells): 31.91 µg/mL

Nc1nc(N2CCN(C(=O)COc3ccc(Cl)cc3)CC2)c2nc(-c3ccc(F)cc3)sc2n1 [Example 45, 1-(4-(5-amino-2-(4-fluorophenyl)thiazolo[5,4-d]pyrimidin-7-yl)piperazin-1-yl)-2-(4-chlorophenoxy)ethanone]
EC50 (hRV-63; Human rhinovirus sp., HRV63, HeLa Rh, methodology of example 451, read-out: EC50 (μg/ml) hRV-63): 0.018 µg/mL (≈ 0.0361 µM)
EC50 (hRV-45; Human rhinovirus sp., HRV45, HeLa Rh, methodology of example 451, read-out: EC50 (μg/ml) hRV-45): 0.198 µg/mL (≈ 0.397 µM)
EC50 (HIV-1 strain IIIB; [9]): 0.73 µM
EC50 (hRV-41; Human rhinovirus sp., HRV41, HeLa Rh, methodology of example 451, read-out: EC50 (μg/ml) hRV-41): 0.0129 µg/mL (≈ 0.0259 µM)
EC50 (hRV-2; Rhinovirus A, HRV2, HeLa Rh, methodology of example 451, read-out: EC50 (μg/ml) hRV-2): 0.0095 µg/mL (≈ 0.019 µM)
CC50 (in vitro [1]): 149 µM
EC50 [4]: 0.076 µg/mL (≈ 0.152 µM)
EC50 (hRV-42; Human rhinovirus sp., HRV42, HeLa Rh, methodology of example 451, read-out: EC50 (μg/ml) hRV-42): 0.0142 µg/mL (≈ 0.0285 µM)
EC50 (hRV-59): 0.02 µg/mL (≈ 0.0401 µM)
EC50 (poliovirus (PV type 1); HeLa): < 0.023 µg/mL
EC50 (poliovirus (PV type 1); Vero): < 0.023 µg/mL
EC50 (hRV-14; Rhinovirus B, HRV14, HeLa Rh, methodology of example 451, read-out: EC50 (μg/ml) hRV-14): 0.0701 µg/mL (≈ 0.14 µM)
EC50 (hRV-86; Human rhinovirus sp., HRV86, HeLa Rh, methodology of example 451, read-out: EC50 (μg/ml) hRV-86): 0.047 µg/mL (≈ 0.0942 µM)
EC50 (hRV-39; Human rhinovirus sp., HRV39, HeLa Rh, methodology of example 451, read-out: EC50 (μg/ml) hRV-39): 0.012 µg/mL (≈ 0.024 µM)
EC50 (hRV-29): 0.011 µg/mL (≈ 0.022 µM)
CC50 (in vitro [2]): > 50 µg/mL
EC50 (hRV-70; Human rhinovirus sp., HRV70, HeLa Rh, methodology of example 451, read-out: EC50 (μg/ml) hRV-70): 0.0718 µg/mL (≈ 0.144 µM)
EC50 (poliovirus (PV type 2); HeLa): < 0.023 µg/mL
EC50 (poliovirus (PV type 2); Vero): < 0.023 µg/mL
CC50 [5]: 25.7 µg/mL (≈ 51.5 µM)
EC50 (enterovirus (EV71)): 0.0695 µg/mL (≈ 0.139 µM)
EC50 (coxsackie virus (CVA9)): 0.29 µg/mL (≈ 0.581 µM)
CC50 (in vitro [3]): > 150 µg/mL
EC50 (hRV-89): 0.021 µg/mL (≈ 0.0421 µM)
CC50 [6]: 27.8 µg/mL (≈ 55.7 µM)
EC50 (hRV-9; Human rhinovirus sp., HRV9, HeLa Rh, methodology of example 451, read-out: EC50 (μg/ml) hRV-9): 0.0082 µg/mL (≈ 0.0164 µM)
CC50 [7]: 21.7 µg/mL (≈ 43.5 µM)
EC50 (poliovirus (PV type 3); HeLa): < 0.023 µg/mL
EC50 (poliovirus (PV type 3); Vero): < 0.023 µg/mL
CC50 (in vitro [8]): 28.7 µg/mL (≈ 57.5 µM)
EC50 (HIV-2 strain (ROD)): 0.45 µM
EC50 (hRV-85; Human rhinovirus sp., HRV85, HeLa Rh, methodology of example 451, read-out: EC50 (μg/ml) hRV-85): 0.0295 µg/mL (≈ 0.0591 µM)
EC50 (hRV-15; Human rhinovirus sp., HRV15, HeLa Rh, methodology of example 451, read-out: EC50 (μg/ml) hRV-15): 0.017 µg/mL (≈ 0.0341 µM)
EC50 (hRV-72; Human rhinovirus sp., HRV72, HeLa Rh, methodology of example 451, read-out: EC50 (μg/ml) hRV-72): 0.0736 µg/mL (≈ 0.148 µM)
